Test results reported in ChEMBL document CHEMBL1201862, “PubChem BioAssay data set” (2004).
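These data come from cells grown in 96-well plates and exposed to compound for 48 hours at five concentrations. GI50 = concentration required for 50% inhibition of growth.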 The source made the active and inactive calls. Rule as the data show it: active = GI50 up to about 1.1 µM and inactive = higher.

What was measured:
Assay in all cases: NCI anticancer screen, dose series, 48 h
A498 = test system: A498
HCC 2998 = test system: HCC 2998
HCT-116 = test system: HCT-116
HCT-15 = test system: HCT-15
HOP-62 = test system: HOP-62
HT-29 = test system: HT-29
Hs-578T = test system: Hs-578T
M14 = test system: M14
Malme-3M = test system: Malme-3M
NCI-H23 = test system: NCI-H23
NCI-H522 = test system: NCI-H522
NCI/ADR-RES = test system: NCI/ADR-RES
OVCAR-3 = test system: OVCAR-3
SF-539 = test system: SF-539
SK-MEL-28 = test system: SK-MEL-28
SK-MEL-2 = test system: SK-MEL-2
SK-MEL-5 = test system: SK-MEL-5
SW-620 = test system: SW-620
U-251 = test system: U-251
UACC-62 = test system: UACC-62

| Compound | GI50 (A498) | GI50 (HCC 2998) | GI50 (HCT-116) | GI50 (HCT-15) | GI50 (HOP-62) | GI50 (HT-29) | GI50 (Hs-578T) | GI50 (M14) | GI50 (Malme-3M) | GI50 (NCI-H23) | GI50 (NCI-H522) | GI50 (NCI/ADR-RES) | GI50 (OVCAR-3) | GI50 (SF-539) | GI50 (SK-MEL-28) | GI50 (SK-MEL-2) | GI50 (SK-MEL-5) | GI50 (SW-620) | GI50 (U-251) | GI50 (UACC-62) |
| --- | --- | --- | --- | --- | --- | --- | --- | --- | --- | --- | --- | --- | --- | --- | --- | --- | --- | --- | --- | --- |
| Nc1c2cc3ccc2nc2ccc(cc12)OCCOCCOCCOCCOCCOCCO3 | > 10 µM (inactive) | > 10 µM (inactive) | > 10 µM (inactive) | > 10 µM | > 10 µM (inactive) | > 10 µM (inactive) | > 10 µM (inactive) | > 10 µM (inactive) | > 10 µM (inactive) | > 10 µM (inactive) | > 10 µM (inactive) | > 10 µM (inactive) | > 10 µM (inactive) | > 10 µM (inactive) | > 10 µM (inactive) | > 10 µM (inactive) | > 10 µM (inactive) | > 10 µM (inactive) | > 10 µM (inactive) | > 10 µM (inactive) |
| CCCCN(CCCC)CC(=O)c1ccc2cc(Cl)c3ccccc3c2c1 | 20.7 µM (inactive) | 32.1 µM (inactive) | 43.1 µM (inactive) | 22.9 µM | 50 µM (inactive) | 17.4 µM (inactive) | 35.7 µM (inactive) | 76 µM (inactive) | 37.6 µM (inactive) | 46.9 µM (inactive) | 16.4 µM (inactive) | 99.3 µM (inactive) | 51.4 µM (inactive) | 42.6 µM (inactive) |  | 25.5 µM (inactive) | 17.9 µM (inactive) | 29.8 µM (inactive) | 19.6 µM (inactive) | 32.6 µM (inactive) |
| Cc1cn([C@@H]2C[C@](C)(CO)N(C)O2)c(=O)[nH]c1=O | > 100 µM (inactive) | > 100 µM (inactive) | > 100 µM (inactive) | > 100 µM | > 100 µM (inactive) | > 100 µM (inactive) | > 100 µM (inactive) | > 100 µM (inactive) | > 100 µM (inactive) | > 100 µM (inactive) | > 100 µM (inactive) | > 100 µM (inactive) |  |  | > 100 µM (inactive) | > 100 µM (inactive) | > 100 µM (inactive) | > 100 µM (inactive) | > 100 µM (inactive) | > 100 µM (inactive) |
| CC(O)CCNC(=O)Nc1c(C(F)(F)F)cc(-c2ccccc2)[nH]c1=O (stereo unspecified) | > 100 µM (inactive) | > 100 µM (inactive) | > 100 µM (inactive) | > 100 µM | > 100 µM (inactive) | > 100 µM (inactive) | > 100 µM (inactive) | > 100 µM (inactive) | 47.3 µM (inactive) | > 100 µM (inactive) | > 100 µM (inactive) | > 100 µM (inactive) | > 100 µM (inactive) |  | > 100 µM (inactive) | > 100 µM (inactive) | > 100 µM (inactive) | > 100 µM (inactive) | > 100 µM (inactive) | > 100 µM (inactive) |
| CCOc1cc2c(cc1O)/C(=N/NS(=O)(=O)c1ccc(C)cc1)C[C@@H]1[C@@H]2CC[C@]2(C)[C@@H](O)CC[C@@H]12 | 9.31 µM (inactive) | 3.75 µM (inactive) |  | 4.53 µM |  | 2.89 µM (inactive) | 7.57 µM (inactive) | 3.21 µM (inactive) | 7.43 µM (inactive) | 32.7 µM (inactive) | 3.31 µM (inactive) | 3.5 µM (inactive) |  | 3.45 µM (inactive) | > 100 µM (inactive) | 3.94 µM (inactive) | 2.47 µM (inactive) | 3.52 µM (inactive) | 6.53 µM (inactive) |  |
| ClC1(c2ccccc2)c2ccc(Br)cc2-c2cc(Br)ccc21 | 18.8 µM (inactive) | 19.7 µM (inactive) | 14.9 µM (inactive) | 16 µM | 19.3 µM (inactive) | 12.3 µM (inactive) | 19.9 µM (inactive) | 14.2 µM (inactive) | 17 µM (inactive) | 15 µM (inactive) | 14.2 µM (inactive) | 18.1 µM (inactive) | 16.9 µM (inactive) | 18.7 µM (inactive) | 18.8 µM (inactive) | 17.8 µM (inactive) | 15.7 µM (inactive) | 19.8 µM (inactive) | 17.6 µM (inactive) |  |
| COc1nc(C)nc2c1ncn2Cc1ccccc1 | > 100 µM (inactive) | > 100 µM (inactive) | > 100 µM (inactive) | > 100 µM | > 100 µM (inactive) | > 100 µM (inactive) | 99.8 µM (inactive) | > 100 µM (inactive) | > 100 µM (inactive) | > 100 µM (inactive) | > 100 µM (inactive) | > 100 µM (inactive) | > 100 µM (inactive) | > 100 µM (inactive) | > 100 µM (inactive) |  | > 100 µM (inactive) | > 100 µM (inactive) | > 100 µM (inactive) | > 100 µM (inactive) |
| Brc1ccc(CCNCCN2CCCCC2)cc1 | 18 µM (inactive) | 14.5 µM (inactive) | 12.1 µM (inactive) | 18.1 µM | 20.4 µM (inactive) | 4 µM (inactive) | 20.3 µM (inactive) | 15.6 µM (inactive) | 17.7 µM (inactive) | 16.4 µM (inactive) | 16.4 µM (inactive) | 21.1 µM (inactive) | 15.4 µM (inactive) | 10.9 µM (inactive) | 11.8 µM (inactive) | 19.4 µM (inactive) | 8.07 µM (inactive) | 17 µM (inactive) | 18.4 µM (inactive) |  |
| O=c1c(C(c2ccco2)c2c(O)oc3ccccc3c2=O)c(O)oc2ccccc12 | > 100 µM (inactive) | 26.5 µM (inactive) | 78 µM (inactive) | 19.1 µM | > 100 µM (inactive) | 47.6 µM (inactive) | 51.1 µM (inactive) |  | 20.5 µM (inactive) | > 100 µM (inactive) | 19.5 µM (inactive) | 30.5 µM (inactive) | 41.6 µM (inactive) |  | 21.2 µM (inactive) | 51.6 µM (inactive) | 40.3 µM (inactive) | 21.4 µM (inactive) | 27.2 µM (inactive) | 25.9 µM (inactive) |
| CC(O)[C@@]1(c2ccccc2)CC2(CCN(C)CC2)O[C@H]1C (stereo partly specified) | > 100 µM (inactive) | > 100 µM (inactive) |  | > 100 µM | > 100 µM (inactive) | > 100 µM (inactive) | > 100 µM (inactive) | > 100 µM (inactive) | > 100 µM (inactive) | > 100 µM (inactive) | > 100 µM (inactive) | > 100 µM (inactive) | > 100 µM (inactive) | > 100 µM (inactive) | > 100 µM (inactive) | > 100 µM (inactive) | 61.2 µM (inactive) | > 100 µM (inactive) | > 100 µM (inactive) | 99.5 µM (inactive) |
| O=C(O)CCCC#CCCCC(=O)O | > 100 µM (inactive) | > 100 µM (inactive) | > 100 µM (inactive) | > 100 µM | > 100 µM (inactive) | > 100 µM (inactive) | > 100 µM (inactive) | > 100 µM (inactive) | > 100 µM (inactive) | > 100 µM (inactive) | > 100 µM (inactive) | > 100 µM (inactive) | > 100 µM (inactive) | > 100 µM (inactive) | > 100 µM (inactive) | > 100 µM (inactive) | > 100 µM (inactive) |  | > 100 µM (inactive) | > 100 µM (inactive) |
| COc1ccc(C(=O)CC(c2ccccc2)[C@H]2C(c3ccc(OC)cc3)=Nc3c(nc(SC)n(C)c3=O)NC2c2ccccc2)cc1 (stereo partly specified) | > 100 µM (inactive) | > 100 µM (inactive) | 89.7 µM (inactive) | > 100 µM | > 100 µM (inactive) | > 100 µM (inactive) | > 100 µM (inactive) | > 100 µM (inactive) |  | > 100 µM (inactive) | > 100 µM (inactive) | > 100 µM (inactive) | > 100 µM (inactive) | > 100 µM (inactive) | > 100 µM (inactive) | > 100 µM (inactive) | 41.3 µM (inactive) | > 100 µM (inactive) | > 100 µM (inactive) | > 100 µM (inactive) |
| C[C@H](C(=O)N1C(=O)O[C@@H](c2ccccc2)[C@H]1C)[C@H](c1ccccc1)N(Cc1ccccc1)OC(=O)c1ccccc1 | > 100 µM (inactive) | 21.6 µM (inactive) | 34.1 µM (inactive) | 29.6 µM | 18.9 µM (inactive) | 26.4 µM (inactive) | 84.5 µM (inactive) | 24.3 µM (inactive) | > 100 µM (inactive) | 65.3 µM (inactive) | 29.1 µM (inactive) | 30.3 µM (inactive) |  | 71.3 µM (inactive) | > 100 µM (inactive) | 22.1 µM (inactive) | 21 µM (inactive) | 70.3 µM (inactive) | 31.9 µM (inactive) | 28.6 µM (inactive) |
| N#C[BH2-][n+]1cn(C2CC(OP(=O)(O)OCC3OC(n4cnc5c(=O)[nH]c(N)nc54)CC3O)C(CO)O2)c2nc(N)[nH]c(=O)c21 (stereo unspecified) | > 100 µM (inactive) | > 100 µM (inactive) | > 100 µM (inactive) | > 100 µM | > 100 µM (inactive) | > 100 µM (inactive) | > 100 µM (inactive) |  | 70.5 µM (inactive) | > 100 µM (inactive) | > 100 µM (inactive) | > 100 µM (inactive) | > 100 µM (inactive) | > 100 µM (inactive) | > 100 µM (inactive) | > 100 µM (inactive) | > 100 µM (inactive) | > 100 µM (inactive) | > 100 µM (inactive) | > 100 µM (inactive) |
| CCOC(=O)c1ccc(-c2onc(C)c2Br)[nH]1 | 49.9 µM (inactive) | > 100 µM (inactive) | 30.1 µM (inactive) | 36.1 µM | 59.3 µM (inactive) | 39.5 µM (inactive) | 70.5 µM (inactive) | 62.7 µM (inactive) | 79.6 µM (inactive) | 46.8 µM (inactive) | 51.9 µM (inactive) | 29.7 µM (inactive) | 30.4 µM (inactive) |  | > 100 µM (inactive) | 76 µM (inactive) | 41.3 µM (inactive) | 60 µM (inactive) | 36.4 µM (inactive) | 56 µM (inactive) |
